Measured values: ChEMBL document CHEMBL3352411, “Structure-activity relationships (SAR) and structure-kinetic relationships (SKR) of bicyclic heteroaromatic acetic acids as potent CRTh2 antagonists II: lead optimization” (Bioorg Med Chem Lett, 2014)

Key:
[1] = target: T1, Prostaglandin D2 receptor 2 (Homo sapiens, UniProt Q9Y5Y4); test: Antagonist activity at CRTh2 receptor (unknown origin) overexpressed in CHOK1 cell membranes assessed as inhibition of [35S]-GTPgammaS binding measured after 2 hrs by liquid scintillation counting analysis; format: functional, CHO-K1
T1 sequence (Q9Y5Y4 whole entry): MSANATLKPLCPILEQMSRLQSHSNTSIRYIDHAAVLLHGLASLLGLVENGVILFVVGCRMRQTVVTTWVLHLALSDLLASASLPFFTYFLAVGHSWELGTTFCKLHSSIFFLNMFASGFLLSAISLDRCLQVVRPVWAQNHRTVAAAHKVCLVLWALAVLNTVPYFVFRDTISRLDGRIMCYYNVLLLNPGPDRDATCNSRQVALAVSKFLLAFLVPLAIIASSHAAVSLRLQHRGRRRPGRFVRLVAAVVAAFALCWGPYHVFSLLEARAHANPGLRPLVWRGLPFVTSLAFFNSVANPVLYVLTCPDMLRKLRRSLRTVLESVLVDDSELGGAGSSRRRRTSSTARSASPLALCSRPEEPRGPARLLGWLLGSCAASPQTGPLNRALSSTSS

[2] = target: T2, Prostaglandin D2 receptor 2 (Homo sapiens) (UniProt Q9Y5Y4); test: Binding affinity to CRTh2 receptor (unknown origin) overexpressed in CHOK1 cell membranes assessed as dissociation half life at 10 times IC50 concentration preincubated for 1 hr with 0.1 nM to 100 uM PGD2 and [35S]-GTPgammaS by liquid scintillation counting analysis; format: functional; settings: CHO-K1
T2 sequence (whole entry): T1 sequence (Q9Y5Y4 whole entry)

[3] = AUC (0 to infinity) in Wistar rat at 1 mg/kg, iv; format: ADME, organism-based; set-up: time infinity, dose 1 mg/kg, route intravenous; settings: plasma
[4] = Clearance in Wistar rat at 1 mg/kg, iv; format: ADME, organism-based; set-up: dose 1 mg/kg, route intravenous; settings: in vivo
[5] = Terminal half life in Wistar rat at 1 mg/kg, iv; format: ADME, organism-based; set-up: dose 1 mg/kg, route intravenous; settings: in vivo, read-out: beta t1/2 (converted)
[6] = Cmax in Wistar rat at 1 mg/kg, iv; format: ADME, organism-based; set-up: dose 1 mg/kg, route intravenous; settings: in vivo
[7] = Mean residence time in Wistar rat at 1 mg/kg, iv; format: ADME, organism-based; set-up: dose 1 mg/kg, route intravenous; settings: in vivo
[8] = Volume of distribution at steady state in Wistar rat at 1 mg/kg, iv; format: ADME, organism-based; set-up: dose 1 mg/kg, route intravenous; settings: in vivo, read-out: Vdss
[9] = Oral bioavailability in Wistar rat at 10 mg/kg; format: ADME, organism-based; settings: in vivo

| SMILES | IC50 [1] [nM] | T1/2 [2] [h] | other results |
| --- | --- | --- | --- |
| CCN(Cc1cc(C(F)(F)F)ccc1-n1cc(CC(=O)O)c2ccc(C)nc21)C(=O)CN(C)C | 163 |  |  |
| Cc1ccc2c(CC(=O)O)cn(-c3ccc(C(F)(F)F)cc3CN(CCO)C(=O)C3CC3)c2n1 | 14 | 7.8 |  |
| CCN(Cc1cc(C(F)(F)F)ccc1-n1cc(CC(=O)O)c2ccc(C)nc21)C(=O)NCc1ccccc1 | 5 | 26 |  |
| CCN(Cc1cc(C(F)(F)F)ccc1-n1cc(CC(=O)O)c2ccc(C)nc21)C(C)=O |  | 6.4 |  |
| CCN(Cc1cc(C(F)(F)F)ccc1-c1nn(CC(=O)O)c2ccc(C)cc12)C(=O)C1CC1 | 9 | 1.8 |  |
| CCN(Cc1cc(C)ccc1-n1cc(CC(=O)O)c2ccc(C)nc21)C(=O)C1CC1 | 5.9 | 24 |  |
| CCN(Cc1cc(C(F)(F)F)ccc1-c1nn(CC(=O)O)c2cccc(C)c12)C(=O)C1CC1 |  | 2.3 |  |
| CCN(Cc1cc(C(F)(F)F)ccc1-n1cc(CC(=O)O)c2ccc(C)nc21)C(=O)Cc1ccccc1 | 6 | 24 |  |
| CCN(Cc1cc(C(F)(F)F)ccc1-c1nn(CC(=O)O)c2ccc(Cl)cc12)C(=O)C1CC1 |  | 2.8 |  |
| CCN(Cc1ccccc1-n1cc(CC(=O)O)c2ccc(C)nc21)C(=O)C1CC1 |  | 8.8 |  |
| CCN(Cc1cc(C(F)(F)F)ccc1-n1cc(CC(=O)O)c2ccc(C)cc21)C(=O)C1CC1 | 119 |  |  |
| Cc1ccc2c(CC(=O)O)cn(-c3ccc(C(F)(F)F)cc3CN(C(=O)C3CC3)C(C)C)c2n1 | 28 | 9.2 |  |
| CCN(Cc1cc(C(F)(F)F)ccc1-n1cc(CC(=O)O)c2ccc(C)nc21)C(=O)c1ccccn1 | 97 |  |  |
| COCCN(Cc1cc(C(F)(F)F)ccc1-n1cc(CC(=O)O)c2ccc(C)nc21)C(=O)C1CC1 | 4 | 7 |  |
| CCN(Cc1cc(F)ccc1-c1cn(CC(=O)O)c2ccc(C(F)(F)F)cc12)C(=O)C1CC1 | 14 | 20 |  |
| CCN(Cc1cc(C(F)(F)F)ccc1-n1cc(CC(=O)O)c2ccc(C(F)F)nc21)C(=O)C1CC1 | 11 | 29 |  |
| CCN(Cc1cc(C(F)(F)F)ccc1-n1cc(CC(=O)O)c2ccc(C)nc21)C(=O)COC | 9 | 21 |  |
| CCN(Cc1cc(C(F)(F)F)ccc1-c1cn(CC(=O)O)c2cccnc12)C(=O)C1CC1 | 20 | 1.9 |  |
| CCN(Cc1cc(C(F)(F)F)ccc1-n1cc(CC(=O)O)c2ccccc21)C(=O)C1CC1 |  | 2.5 |  |
| CCN(Cc1cc(C(F)(F)F)ccc1-c1nn(CC(=O)O)c2cccc(OC)c12)C(=O)C1CC1 | 23 | 2.4 |  |
| CCN(Cc1cc(C(F)(F)F)ccc1-c1nn(CC(=O)O)c2ccc(F)cc12)C(=O)C1CC1 |  | 1.4 |  |
| CCN(Cc1cc(C(F)(F)F)ccc1-n1cc(CC(=O)O)c2cccnc21)C(=O)C1CC1 |  | 2.3 |  |
| CCN(Cc1cc(C(F)(F)F)ccc1-c1cc(CC(=O)O)c2ccc(C)nn12)C(=O)C1CC1 | 4.2 | 26 |  |
| CCN(Cc1cc(C(F)(F)F)ccc1-n1cc(CC(=O)O)c2ccc(OC)nc21)C(=O)C1CC1 | 135 |  |  |
| CCN(Cc1cc(C(F)(F)F)ccc1-c1nn(CC(=O)O)c2ccccc12)C(=O)C1CC1 | 19 |  |  |

| SMILES | IC50 [1] [nM] | T1/2 [2] [h] | other results |
| --- | --- | --- | --- |
| CCN(Cc1cc(Cl)ccc1-n1cc(CC(=O)O)c2ccc(C)nc21)C(=O)C1CC1 | 5.2 | 31 |  |
| CCN(Cc1cc(C(F)(F)F)ccc1-c1nn(CC(=O)O)c2cccc(Cl)c12)C(=O)C1CC1 | 6.3 | 3.2 |  |
| CCN(Cc1cc(C(F)(F)F)ccc1-n1cc(CC(=O)O)c2ccc(C)nc21)C(=O)C1CCC1 | 10 | 24 |  |
| CCN(Cc1ccccc1-n1cc(CC(=O)O)c2ccc(C(F)(F)F)cc21)C(=O)C1CC1 | 11 | 27 | AUC(0-inf) [3]: 1070 ng·h/mL; clearance [4]: 16 mL/min/kg; half-life [5]: 6.6 h; Cmax [6]: 1900 ng/mL; MRT [7]: 3.4 h; Vd [8]: 3.2 L/kg |
| CCN(Cc1cc(S(C)(=O)=O)ccc1-n1cc(CC(=O)O)c2ccc(C)nc21)C(=O)C1CC1 | 40 |  |  |
| CCN(Cc1cc(C(F)(F)F)ccc1-c1nn(CC(=O)O)c2cccc(C#N)c12)C(=O)C1CC1 | 33 | 1.2 |  |
| CCN(Cc1cc(F)ccc1-n1cc(CC(=O)O)c2ccc(C)nc21)C(=O)C1CC1 | 4.7 | 11 |  |
| CCN(Cc1cc(C(F)(F)F)ccc1-n1cc(CC(=O)O)c2ccc(C)nc21)C(=O)C1CC1 | 10 | 21 | AUC(0-inf) [3]: 1220 ng·h/mL; clearance [4]: 14 mL/min/kg; bioavailability [9]: 27%; half-life [5]: 4.9 h; Cmax [6]: 1610 ng/mL; MRT [7]: 2.3 h; Vd [8]: 1.8 L/kg |
| CCN(Cc1cc(C(F)(F)F)ccc1-c1cn(CC(=O)O)c2ccc(C)nc12)C(=O)C1CC1 | 17 | 21 | AUC(0-inf) [3]: 126 ng·h/mL; clearance [4]: 134 mL/min/kg; half-life [5]: 0.5 h; Cmax [6]: 366 ng/mL; MRT [7]: 0.3 h; Vd [8]: 2.7 L/kg |
| CCN(Cc1cc(C(F)(F)F)ccc1-c1cc(CC(=O)O)n2cccnc12)C(=O)C1CC1 |  | 2 | AUC(0-inf) [3]: 639 ng·h/mL; clearance [4]: 26 mL/min/kg; half-life [5]: 4.6 h; Cmax [6]: 910 ng/mL; MRT [7]: 2.6 h; Vd [8]: 4.2 L/kg |
| CCN(Cc1cc(C(F)(F)F)ccc1-c1cn(CC(=O)O)c2ccc(C(F)(F)F)nc12)C(=O)C1CC1 | 15 | 25 |  |
| CCc1ccc2c(CC(=O)O)cn(-c3ccc(C(F)(F)F)cc3CN(CC)C(=O)C3CC3)c2n1 | 10 | 9.9 |  |
| CCN(Cc1cc(C(F)(F)F)ccc1-n1cc(CC(=O)O)c2ccc(C3CC3)nc21)C(=O)C1CC1 | 49 | 5.4 |  |
| CCN(Cc1cc(OC(F)(F)F)ccc1-n1cc(CC(=O)O)c2ccc(C)nc21)C(=O)C1CC1 | 5.8 | 16 |  |
| CCN(Cc1cc(C(F)(F)F)ccc1-c1nn(CC(=O)O)c2cccc(F)c12)C(=O)C1CC1 | 4.3 | 5 |  |
| CCN(Cc1cc(C(F)(F)F)ccc1-c1nn(CC(=O)O)c2cc(F)ccc12)C(=O)C1CC1 | 127 |  |  |
| CCN(Cc1cc(C(F)(F)F)ccc1-n1cc(CC(=O)O)c2ccc(C)nc21)C(=O)CC1CC1 | 7 | 22 |  |
| CCN(Cc1cc(F)ccc1-c1cn(CC(=O)O)c2ccccc12)C(=O)C1CC1 |  | 2 | AUC(0-inf) [3]: 222 ng·h/mL; clearance [4]: 76 mL/min/kg; half-life [5]: 1.9 h; Cmax [6]: 431 ng/mL; MRT [7]: 1.2 h; Vd [8]: 5.4 L/kg |
| Cc1ccc2c(CC(=O)O)cn(-c3ccc(C(F)(F)F)cc3CN(CCOc3ccccc3)C(=O)C3CC3)c2n1 | 4 | 40 |  |
| CCN(Cc1cc(C(F)(F)F)ccc1-c1nn(CC(=O)O)c2ccc(F)c(Cl)c12)C(=O)C1CC1 |  | 3.3 |  |
| CCN(Cc1cc(F)ccc1-n1cc(CC(=O)O)c2cccnc21)C(=O)C1CC1 |  | 1.3 |  |
| CCN(Cc1cc(C(F)(F)F)ccc1-c1cc(CC(=O)O)n2ccc(C)nc12)C(=O)C1CC1 |  | 19 |  |
| CCN(Cc1cc(C(F)(F)F)ccc1-n1cc(CC(=O)O)c2ccc(C(F)(F)F)nc21)C(=O)C1CC1 | 54 |  |  |
| CCN(Cc1cc(C(F)(F)F)ccc1-c1nn(CC(=O)O)c2ccc(Cl)c(F)c12)C(=O)C1CC1 | 15 | 10.5 |  |
| Cc1ccc2c(CC(=O)O)cn(-c3ccc(C(F)(F)F)cc3CN(CC3CC3)C(=O)C3CC3)c2n1 | 11 | 32 |  |
